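Grown in 96-well plates, cells were treated for 48 hours with each compound at five concentrations. Insufficient inhibition: endpoint recorded as highest concentration tested. Here, GI50 denotes the concentration required for 50% inhibition of growth. TGI: total growth inhibition.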

Consider 4 molecules from PubChem BioAssay (NCI).

Among the test systems are CCRF-CEM leukemia; OVCAR-5 ovarian; UACC-62 melanoma; M14 melanoma; HCT-116 colon; NCI-H522 lung; KM12 colon; A549 NSCLC; LOX IMVI melanoma; OVCAR-3 ovarian.
Common to all, as to experiment: NCI tumour cell line growth inhibition, 48 h

Turning to `COC1=CC(=O)c2nc(-c3ccncc3)[nH]c2C1=O`, the GI50 was more than 100 µM in the experiment on CCRF-CEM leukemia; more than 100 µM with OVCAR-5 ovarian; more than 100000 nM in the experiment on UACC-62 melanoma; more than 100 µM with M14 melanoma; more than 100000 nM in the experiment with HCT-116 colon; more than 100000 nM with NCI-H522 lung. Further, the GI50 in the experiment with KM12 colon, in the experiment on A549 NSCLC, in the experiment on LOX IMVI melanoma and in the experiment on OVCAR-3 ovarian was more than 100 µM in each case. The TGI in the experiment on CCRF-CEM leukemia, in the experiment on OVCAR-5 ovarian, in the experiment with UACC-62 melanoma, in the experiment with M14 melanoma, in the experiment on HCT-116 colon and in the experiment on NCI-H522 lung was more than 100 µM each time. Besides, the TGI in the experiment with KM12 colon, in the experiment with A549 NSCLC, in the experiment on LOX IMVI melanoma and in the experiment on OVCAR-3 ovarian was more than 100 µM throughout.

Take `CN(C)CC[N+]1=Nc2cccc3cccc(c23)N1`: the TGI in the experiment with CCRF-CEM leukemia is more than 67.3 µM; in the experiment with OVCAR-5 ovarian, more than 100 µM; in the experiment on UACC-62 melanoma, more than 100 µM; with M14 melanoma, more than 100 µM; with HCT-116 colon, more than 72.7 µM; in the experiment on NCI-H522 lung, more than 95.7 µM. The TGI was more than 100 µM with KM12 colon, more than 100 µM in the experiment with A549 NSCLC, more than 63.7 µM with LOX IMVI melanoma and more than 100 µM with OVCAR-3 ovarian.

Take `O=C1C(Cl)=C(Nc2cccc(Cl)c2)C(=O)N1Cc1ccc(Cl)cc1Cl`: the GI50 in the experiment on CCRF-CEM leukemia was 4.38 µM; in the experiment with OVCAR-5 ovarian, 11.6 µM; in the experiment with UACC-62 melanoma, 446 nM; with M14 melanoma it was 4.87 µM; with HCT-116 colon, 685 nM; in the experiment on NCI-H522 lung it was 265 nM. For the same molecule, the GI50 is 7.89 µM in the experiment with KM12 colon, 3.85 µM in the experiment with A549 NSCLC, less than 0.0316 µM in the experiment with LOX IMVI melanoma and 11.1 µM with OVCAR-3 ovarian. For the same molecule, the TGI was more than 100 µM in the experiment with CCRF-CEM leukemia; 37.1 µM in the experiment on OVCAR-5 ovarian; 4.83 µM with UACC-62 melanoma; 21.9 µM in the experiment with M14 melanoma; 7.57 µM in the experiment on HCT-116 colon; 5.86 µM in the experiment with NCI-H522 lung. In addition, the TGI with KM12 colon was 39.2 µM; with A549 NSCLC, 19.6 µM; in the experiment on LOX IMVI melanoma it was 11.5 µM; in the experiment on OVCAR-3 ovarian, 24.8 µM.

As for `CC(C)C/C(CC(=O)CCC(=O)Nc1ccccc1[N+](=O)[O-])=N\NC(=O)c1cc2ccccc2cc1O`, the TGI with CCRF-CEM leukemia was 59.6 µM; with OVCAR-5 ovarian, more than 100 µM; in the experiment on UACC-62 melanoma, 80.5 µM; in the experiment on M14 melanoma, more than 100 µM; in the experiment with HCT-116 colon, more than 100 µM; in the experiment on NCI-H522 lung, 76 µM. Further, the TGI is more than 100 µM in the experiment on KM12 colon, more than 100 µM with A549 NSCLC, 79 µM in the experiment with LOX IMVI melanoma and 99.3 µM in the experiment with OVCAR-3 ovarian.
